Where two headings read alike, the source gives them in different places. Numbered stars: 1 amine (or outer) side, 2 acyl side, 3 side chain; on linkers, the order of the positions; unused ones are H or OH. Bridge positions count the residues as written; N and C are the ends. Square brackets hold non-standard residues; d marks the D form. Peptide text beside a SMILES is read from it. * marks the point of attachment. X1 = NC(=O)CC(O)C(N[*:1])C(=O)[*:2]; NMeF = CN[CH](Cc1ccccc1)C(=O)O; NMeN = CN[CH](CC(N)=O)C(=O)O; X2 = CCC(C)CCCCCCCCCCC(=O)*
Columns and labels:
[1] = test system: Pyricularia oryzae; assay type: cell-based; details: line H malonomicin alone, concentrations in Table 8
[2] = test system: Mycosphaerella arachidis; experiment: Liquid culture, Mycosphaerella arachidis (Cercospora arachidicola), early leaf spot, 4-5 days; assay type: cell-based; details: Mycosphaerella arachidis, read-out: % reduction fungal growth
Protocol: (§1) Mycelia fragments or conidia suspensions of a fungus, prepared either freshly from liquid cultures of the fungus or from cryogenic storage, were directly mixed into nutrient broth.
(§2) A stock solution for compound of Formula I(a) and Formula I(b) was produced in DMSO (max. 10 mg/ml), which was diluted with water plus 0.025% Tween®20 to produce a 10× concentrated sample and 10 μl of this solution was pipetted into a microtiter plate (96-well format). The nutrient broth containing the fungal spores/mycelia fragments was then added to give an end concentration of the tested compound. The test plates were incubated in the dark at 24 °C and 96% rh. The inhibition of fungal growth was determined photometrically after 2-7 days, depending on the pathosystem, and percent antifungal activity relative to the untreated check was calculated.
(§3) The effect of the test compound (Formula I(a), I(b) and Lipopeptin A) was tested against the following fungi under the conditions as outlined above and specifically herein below:
Mycosphaerella arachidis (Cercospora arachidicola)/liquid culture (early leaf spot) Conidia of the fungus from cryogenic storage were directly mixed into nutrient broth (PDB potato dextrose broth). The inhibition of growth was determined photometrically 4-5 days after application.

[3] = test system: Pyrenophora teres; experiment: Leaf disc preventative test on barley, Pyrenophora teres (Net Blotch), 5-7 days after application; assay type: in vivo; details: Table 5
Protocol: (§4) Leaf disks or leaf segments of various plant species were cut from plants grown in the greenhouse. The cut leaf disks, or segments were placed in multiwell plates (24-well format) onto water agar. The leaf disks were sprayed with a test solution before inoculation with the fungal spores. Compounds to be tested were prepared as DMSO solutions (max. 10 mg/ml) which were diluted to the appropriate concentration with water plus 0.025% Tween® 20 just before spraying. The inoculated leaf disks or segments were incubated under defined conditions (temperature, relative humidity, light, etc.) according to the respective test system. A single evaluation of disease level was carried out by visual evaluation 3-9 days days after inoculation, depending on the pathosystem as indicated below. Percent disease control relative to the untreated check leaf disks or segments was then calculated.
Pyrenophora teres/Barley/Leaf Disc Preventative (Net Blotch)
Barley leaf segments cv. Hasso were placed on agar in a multiwell plate (24-well format) and sprayed with the formulated test compound diluted in water. The leaf segments were inoculated with a spore suspension of the fungus 2 days after application. The inoculated leaf segments were incubated at 20 °C and 65% rh under a light regime of 12 h light/12 h darkness in a climate cabinet and the activity of a compound was assessed as disease control compared to untreated when an appropriate level of disease damage appears in untreated check leaf segments (5-7 days after application).

[4] = test system: Botryotinia fuckeliana; experiment: Liquid culture, Botryotinia fuckeliana (Botrytis cinerea), Gray Mould, 3-4 days; assay type: cell-based
Protocol: as §1, §2, §3
Botryotinia fuckeliana (Botrytis cinerea)/Liquid Culture (Gray Mould)
Conidia of the fungus from cryogenic storage were directly mixed into nutrient broth (Vogels broth). The inhibition of growth is determined photometrically 3-4 days after application.

[5] = test system: Puccinia recondita f. sp. tritici; experiment: Leaf disc/segment test on wheat, Puccinia recondita f. sp. tritici (Brown Rust), 7-9 days after application; assay type: in vivo
Protocol: as §4
Puccinia recondita f. Sp. Tritici/Wheat/Leaf Disc (Brown Rust)
Wheat leaf segments cv. Kanzler were placed on agar in multiwell plates (24-well format) and sprayed with the formulated test compound diluted in water. The leaf disks were inoculated with a spore suspension of the fungus 1 day after application. The inoculated leaf segments were incubated at 19 °C and 75% rh under a light regime of 12 h light/12 h darkness in a climate cabinet and the activity of a compound was assessed as percent disease control compared to untreated when an appropriate level of disease damage appears in untreated check leaf segments (7-9 days after application).

[6] = test system: Glomerella lagenarium; experiment: Liquid culture, Glomerella lagenarium (Colletotrichum lagenarium), Anthracnose, 3-4 days; assay type: cell-based; details: Colletotrichum orbiculare, read-out: % reduction fungal growth
Protocol: as §1, §2, §3
Glomerella lagenarium (Colletotrichum lagenarium)/Liquid Culture (Anthracnose)
Conidia of the fungus from cryogenic storage were directly mixed into nutrient broth (PDB potato dextrose broth). The inhibition of growth was measured photometrically 3-4 days after application.

NC[C@@H]1NC(=O)C(C(=O)CC(NC(=O)[C@@H](N)CO)(C(=O)O)C(=O)O)=C1O [malonomicin, {[(2S)-2-amino-3-hydroxypropanoyl]amino}{2-[(5S)-5-(aminomethyl)-4-hydroxy-2-oxo-2,5-dihydro-1H-pyrrol-3-yl]-2-oxoethyl}malonic acid]
control of fungal growth (% reduction of growth in the test well as compared to untreated check) ([1]; plate column (2), highest malonomicin concentration, lines A-G with compound of Formula I(a) dilution series): 90% | control of fungal growth (% reduction of growth in the test well as compared to untreated check) ([1]; plate column (3) of malonomicin dilution series, lines A-G with compound of Formula I(a)): 70% | control of fungal growth (% reduction of growth in the test well as compared to untreated check) ([1]; plate column (4) of malonomicin dilution series, lines A-G with compound of Formula I(a)): 70% | control of fungal growth (% reduction of growth in the test well as compared to untreated check) ([1]; plate column (5) of malonomicin dilution series, lines A-G with compound of Formula I(a)): 50% | control of fungal growth (% reduction of growth in the test well as compared to untreated check) ([1]; plate column (6) of malonomicin dilution series, lines A-G with compound of Formula I(a)): 50% | control of fungal growth (% reduction of growth in the test well as compared to untreated check) ([1]; plate column (7) of malonomicin dilution series, lines A-G with compound of Formula I(a)): 20% | control of fungal growth (% reduction of growth in the test well as compared to untreated check) ([1]; plate column (8) of malonomicin dilution series, lines A-G with compound of Formula I(a)): 20% | control of fungal growth (% reduction of growth in the test well as compared to untreated check) ([1]; plate column (9) of malonomicin dilution series, lines A-G with compound of Formula I(a)): 0% | control of fungal growth (% reduction of growth in the test well as compared to untreated check) ([1]; plate column (10) of malonomicin dilution series, lines A-G with compound of Formula I(a)): 0% | control of fungal growth (% reduction of growth in the test well as compared to untreated check) ([1]; plate column (11), lowest malonomicin concentration, lines A-G with compound of Formula I(a)): 0%

CCC(C)CCCCCCCCCCC(=O)NC1C(=O)NC(CC(=O)O)C(=O)NC(C(O)CC(N)=O)C(=O)NC(CO)C(=O)N(C)C(CC(N)=O)C(=O)N(C)C(Cc2ccccc2)C(=O)NC(CCC(N)=O)C(=O)NC(CCC(=O)O)C(=O)OC1C (stereo not shown) [Formula I(b)] (X2-TD[X1]S[NMeN][NMeF]QE; ester 1-C; configuration not given here)
inhibition of growth at 0.41 ppm ([2]; Table 2): 0% | inhibition of growth at 1.2 ppm ([2]; Table 2): 0% | inhibition of growth at 3.7 ppm ([2]; Table 2): 0% | inhibition of growth at 11 ppm ([2]; Table 2): 90% | inhibition of growth at 33 ppm ([2]; Table 2): 100% | inhibition of growth at 100 ppm ([2]; Table 2): 100% | inhibition of growth at 0.41 ppm ([2]; Table 3): 0% | inhibition of growth at 1.2 ppm ([2]; Table 3): 0% | inhibition of growth at 3.7 ppm ([2]; Table 3): 0% | inhibition of growth at 11 ppm ([2]; Table 3): 100% | inhibition of growth at 33 ppm ([2]; Table 3): 100% | inhibition of growth at 100 ppm ([2]; Table 3): 100% | % reduction of fungal growth ([3]; 0.82 ppm): 0% | % reduction of fungal growth ([3]; 2.5 ppm): 0% | % reduction of fungal growth ([3]; 7.4 ppm): 0% | % reduction of fungal growth ([3]; 22 ppm): 0% | % reduction of fungal growth ([3]; 67 ppm): 90% | % reduction of fungal growth ([3]; 200 ppm): 90% | % reduction fungal growth ([4]; Table 2, 0.41 ppm): 0% | % reduction fungal growth ([4]; Table 2, 1.2 ppm): 0% | % reduction fungal growth ([4]; Table 2, 3.7 ppm): 0% | % reduction fungal growth ([4]; Table 2, 11 ppm): 0% | % reduction fungal growth ([4]; Table 2, 33 ppm): 0% | % reduction fungal growth ([4]; Table 2, 100 ppm): 50% | % reduction fungal growth ([4]; Table 3, 11 ppm): 50% | % reduction fungal growth ([4]; Table 3, 33 ppm): 50% | % reduction fungal growth ([4]; Table 3, 100 ppm): 70% | % reduction of fungal growth ([5]; Table 4, 0.82 ppm): 0% | % reduction of fungal growth ([5]; Table 4, 2.5 ppm): 0% | % reduction of fungal growth ([5]; Table 4, 7.4 ppm): 0% | % reduction of fungal growth ([5]; Table 4, 22 ppm): 0% | % reduction of fungal growth ([5]; Table 4, 67 ppm): 45% | % reduction of fungal growth ([5]; Table 4, 200 ppm): 70% | % reduction of fungal growth ([5]; Table 5, 0.82 ppm): 0% | % reduction of fungal growth ([5]; Table 5, 2.5 ppm): 0% | % reduction of fungal growth ([5]; Table 5, 7.4 ppm): 0% | % reduction of fungal growth ([5]; Table 5, 22 ppm): 35% | % reduction of fungal growth ([5]; Table 5, 67 ppm): 70% | % reduction of fungal growth ([5]; Table 5, 200 ppm): 95% | inhibition of growth at 0.41 ppm ([6]; Table 2): 0% | inhibition of growth at 1.2 ppm ([6]; Table 2): 0% | inhibition of growth at 3.7 ppm ([6]; Table 2): 0% | inhibition of growth at 11 ppm ([6]; Table 2): 0% | inhibition of growth at 33 ppm ([6]; Table 2): 0% | inhibition of growth at 100 ppm ([6]; Table 2): 0% | inhibition of growth at 0.41 ppm ([6]; Table 3): 0% | inhibition of growth at 1.2 ppm ([6]; Table 3): 0% | inhibition of growth at 3.7 ppm ([6]; Table 3): 0% | inhibition of growth at 11 ppm ([6]; Table 3): 0% | inhibition of growth at 33 ppm ([6]; Table 3): 0% | inhibition of growth at 100 ppm ([6]; Table 3): 0%
